Columns and labels:
[1] = human, cited from earlier work
[2] = molecular target: T1, human sEH (Homo sapiens, UniProt P34913); test: Reversibility of inhibition: incubation with inhibitor, then dialysis; format: biochemical; conditions: 20 nM human sEH incubated with 10 μM inhibitor for 15 min, then dialyzed
T1 sequence (P34913 1-555): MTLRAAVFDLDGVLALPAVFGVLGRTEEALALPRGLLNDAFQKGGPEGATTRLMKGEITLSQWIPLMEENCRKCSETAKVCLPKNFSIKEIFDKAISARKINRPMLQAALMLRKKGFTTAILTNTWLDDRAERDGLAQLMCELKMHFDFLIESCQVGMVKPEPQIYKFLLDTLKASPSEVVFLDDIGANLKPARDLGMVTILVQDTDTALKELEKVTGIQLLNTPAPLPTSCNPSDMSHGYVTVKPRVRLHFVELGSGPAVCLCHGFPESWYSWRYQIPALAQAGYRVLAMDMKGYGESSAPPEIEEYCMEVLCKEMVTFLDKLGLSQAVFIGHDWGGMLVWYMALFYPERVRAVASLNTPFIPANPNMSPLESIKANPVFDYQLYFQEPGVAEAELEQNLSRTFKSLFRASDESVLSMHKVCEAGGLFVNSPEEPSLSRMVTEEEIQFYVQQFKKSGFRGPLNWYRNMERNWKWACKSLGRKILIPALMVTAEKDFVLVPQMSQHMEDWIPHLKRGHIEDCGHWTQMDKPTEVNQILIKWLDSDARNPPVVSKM

[3] = molecular target: T2, sEH-phosphatase activity (Homo sapiens, UniProt P34913); test: Selectivity: inhibition of sEH-phosphatase activity; format: biochemical; conditions: selectivity panel
T2 sequence (P34913 1-555): T1 sequence (P34913 1-555)

[4] = tested on: human alkaline phosphatase; test: Selectivity: inhibition of alkaline phosphatase; format: biochemical; conditions: selectivity panel
[5] = molecular target: T3, human microsomal EH (Homo sapiens, UniProt P07099); test: Selectivity: inhibition of microsomal EH; format: biochemical; conditions: selectivity panel
T3 sequence (P07099 1-455): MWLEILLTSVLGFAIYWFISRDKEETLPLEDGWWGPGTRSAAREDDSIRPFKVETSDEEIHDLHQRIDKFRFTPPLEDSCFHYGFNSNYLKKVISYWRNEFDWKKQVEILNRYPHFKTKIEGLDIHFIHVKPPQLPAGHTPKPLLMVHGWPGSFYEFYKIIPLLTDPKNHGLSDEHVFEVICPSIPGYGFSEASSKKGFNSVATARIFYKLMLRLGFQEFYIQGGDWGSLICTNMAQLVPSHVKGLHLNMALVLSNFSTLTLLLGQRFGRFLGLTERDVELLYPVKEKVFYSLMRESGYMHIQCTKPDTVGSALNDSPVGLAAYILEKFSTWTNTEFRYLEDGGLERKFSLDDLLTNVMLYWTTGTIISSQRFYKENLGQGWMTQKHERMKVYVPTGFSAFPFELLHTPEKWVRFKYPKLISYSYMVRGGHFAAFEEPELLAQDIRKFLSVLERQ

[6] = tested on: esterases and amidases; test: Selectivity: inhibition of a series of esterases and amidases; format: biochemical; conditions: selectivity panel

C[C@]12CC[C@@H]3c4ccc(O)cc4C[C@@H](CCCCCCCCC[S+]([O-])CCCC(F)(F)C(F)(F)F)[C@H]3[C@@H]1CC[C@@H]2O (stereo partly shown) [fulvestrant]
Stability in humans [1]: very stable
Blood concentration ([1]; for several weeks following intramuscular treatment): around 10 nM
sEH activity recovered after dialysis [2]: more than 80%
Inhibition of sEH-phosphatase activity [3]: only inhibit the sEH
Inhibition of human alkaline phosphatase [4]: only inhibit the sEH
Inhibition of human microsomal EH [5]: only inhibit the sEH
Inhibition of a series of esterases and amidases [6]: only inhibit the sEH

Reference: PMC3703951 (Bioorganic & medicinal chemistry letters, 2013)
